Measurements as given in ChEMBL document CHEMBL1155344, “Synthesis of some new 1,2,4-triazoles starting from isonicotinic acid hydrazide and evaluation of their antimicrobial activities” (2009).
Active and inactive are the calls of the source. No cut-off for these calls is given here.

Tests used:
Enterococcus faecalis [1] = assay: Antimicrobial activity against Enterococcus faecalis ATCC 29212 after 18 hrs by well diffusion method; format: functional
Candida tropicalis [2] = assay: Antimicrobial activity against Candida tropicalis ATCC 13803 after 18 hrs by well diffusion method; format: functional
Pseudomonas aeruginosa [3] = assay: Antimicrobial activity against Pseudomonas aeruginosa ATCC 27853 after 18 hrs by well diffusion method; format: functional
Escherichia coli [4] = assay: Antimicrobial activity against Escherichia coli ATCC 25922 after 18 hrs by well diffusion method; format: functional
[5] = tested on: Yersinia pseudotuberculosis; assay: Antimicrobial activity against Yersinia pseudotuberculosis ATCC 911after 18 hrs by well diffusion method; format: functional
Bacillus cereus [6] = assay: Antimicrobial activity against Bacillus cereus 702 Roma after 18 hrs by well diffusion method; format: functional
Candida albicans [7] = assay: Antimicrobial activity against Candida albicans ATCC 60193 after 18 hrs by well diffusion method; format: functional
Staphylococcus aureus [8] = assay: Antimicrobial activity against Staphylococcus aureus ATCC 25923 after 18 hrs by well diffusion method; format: functional
Pseudomonas aeruginosa [9] = assay: Antimicrobial activity against Pseudomonas aeruginosa ATCC 27853 at 5 ug after 18 hrs by well diffusion method; format: functional, organism-based
Escherichia coli [10] = assay: Antimicrobial activity against Escherichia coli ATCC 25922 at 5 ug after 18 hrs by well diffusion method; format: functional, organism-based
Bacillus cereus [11] = assay: Antimicrobial activity against Bacillus cereus 702 Roma at 5 ug after 18 hrs by well diffusion method; format: functional, organism-based
Enterococcus faecalis [12] = assay: Antimicrobial activity against Enterococcus faecalis ATCC 29212 at 5 ug after 18 hrs by well diffusion method; format: functional, organism-based
Staphylococcus aureus [13] = assay: Antimicrobial activity against Staphylococcus aureus ATCC 25923 at 5 ug after 18 hrs by well diffusion method; format: functional, organism-based
Candida albicans [14] = assay: Antimicrobial activity against Candida albicans ATCC 60193 at 5 ug after 18 hrs by well diffusion method; format: functional; conditions: ATCC 60193, 18 h, read-out: IZ
Candida tropicalis [15] = assay: Antimicrobial activity against Candida tropicalis ATCC 13803 at 5 ug after 18 hrs by well diffusion method; format: functional; conditions: ATCC 13803, 18 h, read-out: IZ
[16] = tested on: Yersinia pseudotuberculosis; assay: Antimicrobial activity against Yersinia pseudotuberculosis ATCC 911 at 5 ug after 18 hrs by well diffusion method; format: functional, organism-based
Escherichia coli [17] = assay: Antimicrobial activity against Escherichia coli ATCC 25922 at 10 ug after 18 hrs by well diffusion method; format: functional; conditions: ATCC 25922, 18 h, read-out: IZ
Enterococcus faecalis [18] = assay: Antimicrobial activity against Enterococcus faecalis ATCC 29212 at 10 ug after 18 hrs by well diffusion method; format: functional; conditions: ATCC 29212, 18 h, read-out: IZ
Pseudomonas aeruginosa [19] = assay: Antimicrobial activity against Pseudomonas aeruginosa ATCC 27853 at 10 ug after 18 hrs by well diffusion method; format: functional; conditions: ATCC 27853, 18 h, read-out: IZ
Candida albicans [20] = assay: Antimicrobial activity against Candida albicans ATCC 60193 at 10 ug after 18 hrs by well diffusion method; format: functional, organism-based
Candida tropicalis [21] = assay: Antimicrobial activity against Candida tropicalis ATCC 13803 at 10 ug after 18 hrs by well diffusion method; format: functional, organism-based
Staphylococcus aureus [22] = assay: Antimicrobial activity against Staphylococcus aureus ATCC 25923 at 10 ug after 18 hrs by well diffusion method; format: functional; conditions: ATCC 25923, 18 h, read-out: IZ
Bacillus cereus [23] = assay: Antimicrobial activity against Bacillus cereus 702 Roma at 10 ug after 18 hrs by well diffusion method; format: functional; conditions: read-out: IZ
[24] = tested on: Yersinia pseudotuberculosis; assay: Antimicrobial activity against Yersinia pseudotuberculosis ATCC 911 at 10 ug after 18 hrs by well diffusion method; format: functional; conditions: ATCC 911, 18 h, read-out: IZ

SMILES	inhibition zone (IZ) (Enterococcus faecalis [1])	inhibition zone (IZ) (Candida tropicalis [2])	inhibition zone (IZ) (Pseudomonas aeruginosa [3])	inhibition zone (IZ) (Escherichia coli [4])	inhibition zone (IZ) [5]	inhibition zone (IZ) (Bacillus cereus [6])	inhibition zone (IZ) (Candida albicans [7])	inhibition zone (IZ) (Staphylococcus aureus [8])	other results
S=c1[nH]nc(-c2ccncc2)o1	inactive	30 mm	inactive	inactive	inactive	inactive	25 mm	10 mm	
CN1CCN(Cn2nc(-c3ccncc3)n(N)c2=S)CC1	25 mm	inactive	35 mm	30 mm	24 mm	22 mm	inactive	28 mm	
OC(Cn1cncn1)(Cn1cncn1)c1ccc(F)cc1F [FLUCONAZOLE]									inhibition zone (IZ) (Pseudomonas aeruginosa [9]): inactive; inhibition zone (IZ) (Escherichia coli [10]): inactive; inhibition zone (IZ) (Bacillus cereus [11]): inactive; inhibition zone (IZ) (Enterococcus faecalis [12]): inactive; inhibition zone (IZ) (Staphylococcus aureus [13]): inactive; zone of inhibition at 5 µg/disc (Candida albicans [14]): 25 mm; zone of inhibition at 5 µg/disc (Candida tropicalis [15]): 25 mm; inhibition zone (IZ) [16]: inactive
CC1(C)S[C@@H]2[C@H](NC(=O)[C@H](N)c3ccccc3)C(=O)N2[C@H]1C(=O)O [AMPICILLIN]									zone of inhibition at 10 µg/disc (Escherichia coli [17]): 10 mm; zone of inhibition at 10 µg/disc (Enterococcus faecalis [18]): 10 mm; zone of inhibition at 10 µg/disc (Pseudomonas aeruginosa [19]): 18 mm; inhibition zone (IZ) (Candida albicans [20]): inactive; inhibition zone (IZ) (Candida tropicalis [21]): inactive; zone of inhibition at 10 µg/disc (Staphylococcus aureus [22]): 35 mm; zone of inhibition at 10 µg/disc (Bacillus cereus [23]): 15 mm; zone of inhibition at 10 µg/disc [24]: 18 mm
Fc1ccc(/C=N/n2c(-c3ccncc3)n[nH]c2=S)cc1	inactive	8 mm	inactive	inactive	inactive	7 mm	8 mm	inactive	
CCSc1nnc(-c2ccncc2)n1N	25 mm	8 mm	25 mm	30 mm		20 mm	8 mm	25 mm	
S=c1[nH]nc(-c2ccncc2)n1/N=C/c1c[nH]c2ccccc12	inactive	inactive	inactive	inactive	inactive	inactive	inactive	inactive	
CN1CCN(Cn2nc(-c3ccncc3)oc2=S)CC1	17 mm	inactive	28 mm	23 mm	15 mm	17 mm	inactive	17 mm	
Nn1c(S)nnc1-c1ccncc1	24 mm	inactive	42 mm	34 mm	30 mm	20 mm	inactive	34 mm	
S=c1oc(-c2ccncc2)nn1CNCCN1CCOCC1	15 mm	inactive	13 mm	13 mm	13 mm	14 mm	inactive	14 mm	
Nn1c(-c2ccncc2)nn(CN2CCOCC2)c1=S	inactive	inactive	inactive	20 mm	13 mm	inactive	inactive	inactive	
CCSc1nnc(-c2ccncc2)o1	25 mm	7 mm	25 mm	30 mm	22 mm	18 mm	7 mm	25 mm	
CN1CCN(Cn2nc(-c3ccncc3)n(/N=C/c3ccc(F)cc3)c2=S)CC1	inactive	inactive	inactive	inactive	inactive	inactive	inactive	inactive	
Nn1c(-c2ccncc2)nn(CNCCN2CCOCC2)c1=S	inactive	inactive	inactive	inactive	inactive	inactive	inactive	inactive	
